Experimental data taken from patent US20230247995A1, “FUNGICIDAL COMBINATIONS” (UPL Corporation Limited, priority 2022, published 2023).

Legend:
Format in all cases: in vivo
Monilinia fructicola = assay: Efficacy against brown rot affecting peach crop; conditions: Ipflufenoquin 4, Pyrimethanil 8.9, combination 4 + 8.9 fl oz/a; for % Severity on Fruit: untreated 63.8; for % Disease incidence on Fruit: untreated 96
Protocol: Experiments were carried out to evaluate the efficacy of the fungicidal combination of ipflufenoquin and pyrimethanil against brown rot (Monilinia fructicola) affecting peach crop, as disclosed in Table 4.

Wilsonomyces spp. = assay: Efficacy against Coryneum blight affecting peach crop; conditions: Ipflufenoquin 4, Pyrimethanil 8.9, combination 4 + 8.9 fl oz/a; for % Severity on Fruit: untreated 69.9; for % Disease incidence on Fruit: untreated 100
Protocol: Experiments were carried out to evaluate the efficacy of the fungicidal combination of ipflufenoquin and pyrimethanil against Coryneum blight (Wilsonomyces spp.) affecting peach crop, as disclosed in Table 5.

Cladosporium sp. = assay: Efficacy against scab affecting pecan (nuts); conditions: untreated 33.8
Protocol: Experiments were carried out to evaluate the efficacy of the fungicidal combination of ipflufenoquin and pyrimethanil (both tank mix fungicidal combination and pre-mix formulation as disclosed in Example 1) against scab (Cladosporium sp.) affecting pecan (i.e., nuts), as disclosed in Table 6.

[1] = higher rates: Ipflufenoquin 5, Pyrimethanil 11.1, tank mix 5 + 11.1, pre-mix 12.5 fl oz/a
[2] = lower rates: Ipflufenoquin 4, Pyrimethanil 8.9, tank mix 4 + 8.9, pre-mix 10 fl oz/a

Cc1nc2c(F)c(F)ccc2cc1Oc1cccc(F)c1C(C)(C)O [Ipflufenoquin, 2-{2-[(7,8-difluoro-2-methyl-3-quinolyl)oxy]-6-fluorophenyl}propan-2-ol]
% Severity on Fruit (Monilinia fructicola): 20.3% | % Disease incidence on Fruit (Monilinia fructicola): 42.5% | % Severity on Fruit (Wilsonomyces spp.): 6.9% | % Disease incidence on Fruit (Wilsonomyces spp.): 36.8% | % Severity on Nuts (Cladosporium sp.; [1]): 6.7% | % Severity on Nuts (Cladosporium sp.; [2]): 8.4%

Cc1cc(C)nc(Nc2ccccc2)n1 [Pyrimethanil, N-(4,6-dimethylpyrimidin-2-yl) aniline]
% Severity on Fruit (Monilinia fructicola): 15.5% | % Disease incidence on Fruit (Monilinia fructicola): 19.5% | % Severity on Fruit (Wilsonomyces spp.): 42.8% | % Disease incidence on Fruit (Wilsonomyces spp.): 65.8% | % Severity on Nuts (Cladosporium sp.; [1]): 15.7% | % Severity on Nuts (Cladosporium sp.; [2]): 19.2%
